Details: for log10 BCF / log10 biotransformation half-life (days): fish

Compound | melting point [°C] | boiling point [°C] | other results
O=C(O)c1ccc(C(=O)c2ccccc2)cc1 | 199 |  | 
NC(c1ccccc1)c1ccccc1 | 34 | 304 | 
CN(C)Cc1cc(C(C)(C)C)c(O)c(C(C)(C)C)c1 | 93.5 |  | 
N#Cc1ccc(Cl)c([N+](=O)[O-])c1 | 99 |  | 
CCC=NO | 40 | 132 | 
CCCC(CCC)CCC |  | 158 | 
C=C1C[C@H]2[C@@H]3CCC4=CC(=O)C=C[C@]4(C)[C@H]3[C@@H](O)C[C@]2(C)[C@@]1(O)C(=O)CO | 234 |  | 
CC1=C(C)S(=O)(=O)CCS1(=O)=O | 165 |  | log10 Koc (L/kg): 0.48; log10 vapour pressure (mmHg): -6.42
O=C(O)Cc1sc(-c2ccccc2)nc1-c1ccc(Cl)cc1 | 162 |  | 
CCCCCCCCCCCCCCCCN | 46.8 | 322 | log10 vapour pressure (mmHg): -3.88
CC(C)(C)NCC(O)c1ccc(O)c(CO)c1 (stereo unspecified) | 151 |  | 
CCC(CC)c1ccccc1 |  | 188 | 
CCOCc1ccco1 |  | 149 | 
CC(=O)Nc1cccc(C)c1 | 65.5 | 303 | log10 Koc (L/kg): 1.45
CSSC | -85 | 110 | log10 Henry constant (atm·m³/mol): -2.92; log10 vapour pressure (mmHg): 1.46; ready biodegradability: not readily biodegradable
C=C(C)CCC |  | 62.1 | log10 vapour pressure (mmHg): 2.29
COc1ccccc1OC(=O)c1ccccc1 | 57.5 |  | 
O=C(O)C1CCCCCC1 |  | 259 | 
N#Cc1cccc([N+](=O)[O-])c1 | 116 |  | 
O=C(O)c1ccnc(C(=O)O)c1 | 249 |  | ready biodegradability: readily biodegradable
C=CCC1(C(C)CCC)C(=O)NC(=S)NC1=O (stereo unspecified) | 132 |  | 
ClC1=C(Cl)C2(Cl)C3C4C=CC(C4)C3C1(Cl)C2(Cl)Cl (stereo unspecified) |  |  | ready biodegradability: not readily biodegradable
CC1(C)[C@@H]2CC(=O)[C@@](C)(O)[C@H]1C2 | 38.5 |  | 
CCC(=O)CO |  | 160 | 

Compound | melting point [°C] | boiling point [°C] | other results
Cc1cccnc1C |  | 161 | log10 Henry constant (atm·m³/mol): -5.14; log10 vapour pressure (mmHg): 0.43
CNC(=O)O/N=C(\C)C(C)S(C)(=O)=O (stereo unspecified) | 87 |  | log10 vapour pressure (mmHg): -5.7
Cc1cc(C)cc(C)c1 | -44.7 | 165 | log10 Henry constant (atm·m³/mol): -2.06; log10 Koc (L/kg): 2.82; log10 biodegradation half-life (days): 0.477; log10 vapour pressure (mmHg): 0.395; ready biodegradability: not readily biodegradable; log10 BCF: 2.27; log10 biotransformation half-life (days): 0.4
Nc1nc(N)nc(NC2CC2)n1 | 225 |  | log10 Koc (L/kg): 2.3; log10 vapour pressure (mmHg): -8.47
O=C(O)c1cc(F)cc(F)c1 | 122 |  | 
CC1=C(C(=O)O)CCC1(C)C | 135 | 256 | 
COc1c(Cl)cc(Cl)c(Cl)c1Cl |  |  | log10 BCF: 3.34
O=[N+]([O-])c1ccc(F)cc1 | 21 | 205 | 
C[Si]1(C)O[Si](C)(C)O[Si](C)(C)O[Si](C)(C)O[Si](C)(C)O[Si](C)(C)O[Si](C)(C)O[Si](C)(C)O1 | 31.5 | 290 | log10 vapour pressure (mmHg): -2.54
CC1(C)CCCc2ccccc21 |  | 221 | 
C=CP(=O)(O)O | 43 |  | 
CC(C)c1ccccc1 | -96 | 152 | log10 Henry constant (atm·m³/mol): -1.94; log10 Koa: 3.98; log10 biodegradation half-life (days): 1.18; log10 vapour pressure (mmHg): 0.653; ready biodegradability: readily biodegradable; log10 BCF: 1.55
O=P(O)(O)C(Cl)(Cl)P(=O)(O)O | 250 |  | 
COc1cc(OC)c(C(=O)O)cc1OC | 145 | 300 | 
O=S(=O)(Cc1ccccc1)c1ccccc1 | 146 |  | 
CCCCCCCCCCCCCCCCCCCCCCCCCC(=O)O | 88.5 |  | 
CC1CCCC(=O)C1 (stereo unspecified) |  | 170 | log10 vapour pressure (mmHg): 0.176
COc1ccc2c(c1OC)C(=O)O[C@@H]2[C@H]1c2cc3c(cc2CCN1C)OCO3 | 132 |  | 
COCC(C)O (stereo unspecified) | -95 | 119 | log10 Henry constant (atm·m³/mol): -6.04; log10 vapour pressure (mmHg): 1.1; ready biodegradability: readily biodegradable
CCC(CC1CCCCC1)CC1CCCCC1 |  | 306 | 
O[C@@H]1CO[C@H]2[C@@H]1OC[C@@H]2O | 75.2 |  | 
CC(Cl)C(Cl)Cl (stereo unspecified) |  | 132 | log10 vapour pressure (mmHg): 0.491
Cc1cc(O)ccc1O | 128 | 272 | 
NC(=O)N(CCO)/N=C/c1ccc([N+](=O)[O-])o1 | 214 |  | 

Compound | melting point [°C] | boiling point [°C] | other results
O=C(O)CC(O)C(=O)O (stereo unspecified) | 131 |  | log10 vapour pressure (mmHg): -7.48; ready biodegradability: readily biodegradable
Cc1cccc(C(C)(C)C)c1O | 31 | 230 | ready biodegradability: not readily biodegradable
CCCCCCC(C)Cl (stereo unspecified) |  | 172 | log10 vapour pressure (mmHg): 0.136
CC1(C)CCC(Cc2ccc(Cl)cc2)C1(O)Cn1cncn1 (stereo unspecified) | 112 |  | log10 vapour pressure (mmHg): -7.03; log10 biotransformation half-life (days): 0.23
O=C(O)[C@@H]1CCCO1 | 21 |  | 
C=CCN1CC[C@]23c4c5ccc(O)c4O[C@H]2[C@@H](O)C=C[C@H]3[C@H]1C5 | 208 |  | 
CCc1oc2ccccc2c1C(=O)c1cc(I)c(O)c(I)c1 | 167 |  | 
O=C(Nc1ccc(Cl)c(Cl)c1)c1cc(Cl)ccc1O | 247 |  | 
Clc1nc(Cl)nc(Cl)n1 | 154 | 192 | 
CCN(CC)CCOC(=O)C1(C2CCCCC2)CCCCC1.Cl | 165 |  | 
CC(=O)Nc1nnc(S(N)(=O)=O)s1 | 260 |  | 
ClC1=C(Cl)[C@]2(Cl)[C@H]3[C@H]([C@@H]4C=C[C@H]3C4)[C@@]1(Cl)C2(Cl)Cl (racemic) |  |  | log10 Henry constant (atm·m³/mol): -4.36; log10 Koa: 8.08; log10 Koc (L/kg): 4.69; log10 vapour pressure (mmHg): -3.92; log10 BCF: 3.74; log10 biotransformation half-life (days): 1.37
Fc1c(F)c(F)c2c(F)c(F)c(F)c(F)c2c1F | 87.5 | 209 | 
O=C(O)C=Cc1ccc(Cl)cc1 | 249 |  | 
c1ccc2c(c1)cnc1ccccc12 | 107 | 349 | log10 vapour pressure (mmHg): -4.68
CCCCCCCCCCCCCCCCCCCCCCCCCCCCCCCCCCC | 75 | 490 | log10 vapour pressure (mmHg): -11.3; ready biodegradability: readily biodegradable
N#Cc1ccc(N)c2ccccc12 | 176 |  | 
CCC(=O)Nc1nc(C)c(Cl)s1 | 159 |  | 
O=[N+]([O-])c1cc(C(F)(F)F)ccc1Cl | -2.5 | 222 | 
C=C1C(=O)O[C@@H]2C[C@@H](C)[C@@H]3C=CC(=O)[C@@]3(C)[C@@H](O)[C@H]12 | 168 |  | 
Nc1ncnc2c1ncn2[C@]1(CO)O[C@H](CO)[C@@H](O)[C@H]1O | 212 |  | 
COCCOCCOCCOCCOC |  | 275 | 
Brc1cccc(Br)c1Br | 87.5 |  | 
CCCCCCCCCCCCCCCCCCO | 59.5 |  | log10 Koa: 10.9; log10 vapour pressure (mmHg): -5.57; ready biodegradability: readily biodegradable

Compound | melting point [°C] | boiling point [°C] | other results
C#CCN1CC(=O)N(COC(=O)[C@@H]2[C@@H](C=C(C)C)C2(C)C)C1=O |  |  | log10 vapour pressure (mmHg): -7.87
Nc1ccc(S(=O)(=O)Nc2ccnn2-c2ccccc2)cc1 | 181 |  | 
COc1cc([N+](=O)[O-])ccc1N | 141 |  | ready biodegradability: not readily biodegradable
Cn1ccc(=O)n(C)c1=O | 120 |  | log10 vapour pressure (mmHg): -2.26
c1ncncn1 | 86 | 114 | 
CCOCC(=O)OCC |  | 158 | 
CCC(O)CO[N+](=O)[O-] (stereo unspecified) |  |  | log10 Henry constant (atm·m³/mol): -6.76
CCCCCCC(Br)CBr (stereo unspecified) |  | 241 | 
OCC1c2ccccc2-c2ccccc21 | 106 |  | 
Nc1ccc(S(=O)(=O)NC(=O)c2ccccc2)cc1 | 182 |  | 
Cc1ccc(-c2ccc(C)cc2C)c(C)c1 | 41 | 287 | 
CCC(O)(CC)CC | -12.5 | 142 | 
Cc1ncsc1C | 83.5 | 158 | 
c1ccc(N2CCNCC2)cc1 |  | 286 | log10 vapour pressure (mmHg): -2.26
COC(C)(C)CC(C)=O |  | 160 | log10 vapour pressure (mmHg): 0.342; ready biodegradability: not readily biodegradable
CCCCCCCC(=O)Cl | -63 | 196 | 
C1CCC(CCCC2CCCC2)CC1 |  | 270 | 
COc1ccc2c(c1)N(CCCN(C)C)c1ccccc1S2 | 46 |  | 
O=C1c2ccccc2-c2cccc3cccc1c23 | 170 |  | ready biodegradability: not readily biodegradable; log10 BCF: 2.09; log10 biotransformation half-life (days): -0.69
FC(F)(F)CCBr |  | 63.5 | 
NNc1c(F)c(F)cc(F)c1F | 92 |  | 
C[Si]1(c2ccccc2)O[Si](C)(c2ccccc2)O[Si](C)(c2ccccc2)O[Si](C)(c2ccccc2)O1 (stereo unspecified) | 99 |  | 
C=C(C)C(=O)OCCCCCCCCCCCCCCCCCC |  |  | ready biodegradability: readily biodegradable
OCc1ccc(O)cc1 | 124 | 252 | 

Compound | melting point [°C] | boiling point [°C] | other results
CCOC(=O)c1ccc(C)cc1 |  | 232 | log10 Koc (L/kg): 2.59
ClC(Cl)C(Cl)C(Cl)Cl | -10 | 199 | log10 vapour pressure (mmHg): -0.0278; ready biodegradability: not readily biodegradable
CC(=O)CC(=O)CC(C)=O | 49 |  | 
COC(=O)Nc1nc2cc(C(=O)C3CC3)ccc2[nH]1 | 250 |  | 
OC1CC=CCC1 (stereo unspecified) |  | 164 | 
Cc1ccc(C=O)o1 |  | 187 | 
C[C@]12CC[C@H]3[C@@H](CCC4=CC(=O)CC[C@@]43C)[C@@H]1CC[C@@H]2O | 155 |  | 
Cc1cccc(N2CC(CO)OC2=O)c1 (stereo unspecified) | 76 |  | 
COc1cc([C@@H]2c3cc4c(cc3C(O[C@@H]3O[C@@H]5COC(c6cccs6)O[C@H]5[C@H](O)[C@H]3O)C3COC(=O)[C@@H]32)OCO4)cc(OC)c1O (stereo partly specified) | 244 |  | 
CCNc1nc(NC(C)(C)C)nc(SC)n1 | 104 |  | log10 Koc (L/kg): 2.85; log10 vapour pressure (mmHg): -5.77; ready biodegradability: not readily biodegradable
BrC1CCCCC1 | -56.5 | 166 | 
Cc1ccc(O)c(C(C)(C)C)c1 | 51.5 | 237 | log10 vapour pressure (mmHg): -1.6; ready biodegradability: not readily biodegradable
C#CC(=O)OC |  | 104 | 
C=C(C)CCCCCCCCCCC |  |  | log10 biotransformation half-life (days): 0.73
CCN(CC)CCNC(=O)c1cc(Cl)c(N)cc1OC | 147 |  | 
CCc1cnc2ccccc2c1 |  | 266 | 
CC1=C2[C@H]3OC(=O)[C@@H](C)[C@@H]3[C@@H](O)C[C@@]2(C)C=CC1=O | 203 |  | 
CCC(Br)C(Br)Br (stereo unspecified) |  | 216 | 
CCCCCCCCCCCBr | -9 |  | log10 vapour pressure (mmHg): -1.92
C=CCNC(N)=S | 78 |  | 
CC(C)CCSCCC(C)C | -74.6 | 211 | log10 vapour pressure (mmHg): -0.497
Cc1cc(C)c(O)c(C)c1 | 73 | 220 | log10 vapour pressure (mmHg): -1.76; ready biodegradability: not readily biodegradable; log10 BCF: 0.93; log10 biotransformation half-life (days): -1.3
NC(=O)C1c2ccccc2CCc2ccccc21 | 194 |  | 

From the OPERA property sets (Mansouri et al. 2018)
